Experimental data taken from PubChem BioAssay AID504824 (The Scripps Research Institute Molecular Screening Center, 2011).
pEC50: −log10 of the molar value. Activity calls are given as the source filed them.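 The calls were made as follows: active = compound reaching half of full procaspase-3 activation at 10 µM or lower; inactive = the rest.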

The compounds below were run against Caspase-3 (Homo sapiens) (UniProt P42574) (assay: procaspase-3 activation potency of dual candidates, late-stage follow-up, counter-screen for dual procaspase-3/7 activator project, biochemical, absorbance, PC-3 D3A mutant, powder samples (AID 504824)). Conditions: recombinant PC-3 D3A, Ac-DEVD-pNA absorbance 405 nm.
Chain of Caspase-3 (Homo sapiens) (P42574 whole entry D9A/D28A/D175A): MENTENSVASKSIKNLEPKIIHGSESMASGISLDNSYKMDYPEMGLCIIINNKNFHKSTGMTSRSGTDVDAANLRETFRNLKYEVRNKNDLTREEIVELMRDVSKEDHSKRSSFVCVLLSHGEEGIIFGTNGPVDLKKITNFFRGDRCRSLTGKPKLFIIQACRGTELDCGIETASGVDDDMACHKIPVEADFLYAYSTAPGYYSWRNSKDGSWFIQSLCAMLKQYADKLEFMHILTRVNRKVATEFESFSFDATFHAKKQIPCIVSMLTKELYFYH

EC50	pEC50	SMILES
> 85.3 µM (inactive)	–	O=C(C1=NN(c2ccccc2)C2C(=O)N(c3ccccc3)C(=O)C12)c1ccccc1 (stereo not given)
> 85.3 µM (inactive)	–	COc1ccccc1N1C(=O)C2C(C(=O)c3ccccc3)=NN(c3ccccc3)C2C1=O (stereo not given)
> 85.3 µM (inactive)	–	COC(=O)C1=NN(c2ccc(Cl)cc2)C2C(=O)N(c3ccccc3OC)C(=O)C12 (stereo not given)
> 85.3 µM (inactive)	–	O=C(Nc1ccc(Cc2ccncc2)cc1)C1CCC(N2C(=O)C3C4C=CC(C5CC45)C3C2=O)CC1 (stereo not given)
–	5.44	Cc1[nH]nc2c1C(c1c[nH]c3ccccc13)C(C#N)=C(N)O2 (stereo not given)
